In patent US20240122179A1, “AUXINIC HERBICIDES AND METHODS OF USE THEREOF” (CORTEVA AGRISCIENCE LLC, priority 2021, published 2024):
Where two headings read alike, the source gives them in different places.

How the values were obtained:
[1] = system: Conyza canadensis (L.) (ERICA); experiment: Postemergence herbicide evaluation, percent reduction in plant size vs untreated control, 21 days after treatment; type: in vivo, Conyza canadensis (L.) (Horseweed); conditions: Erigeron canadensis, post-emergence, 504 h, ERICA, postemergence, read-out: Control/Injury; for pest or weed control at 140 g/ha: rate 140 g ae/ha; for pest or weed control at 280 g/ha: rate 280 g ae/ha
In short: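 Track-sprayer applications (187 L/ha, 276 kPa) of 140 or 280 g ae/ha, technical material dissolved in acetone/DMSO then diluted with crop oil and surfactant-containing solvent, to greenhouse Conyza canadensis at 2-8 leaves. After 21 days, size reduction relative to untreated plants was recorded; 3-4 randomized replicates.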

[2] = Volatility of compounds measured by thermogravimetric analysis (TGA), rate of weight loss; type: physicochemical; conditions: estimates of volatility
Source text: Briefly, the rate of weight loss measured in units of […]g/min can be used to determine vapor pressure as shown by the simplified equation: wherein, k is the intrinsic volatility and A is the surface area, Referring now to FIG. 2. A graph of weight loss as function of time for solid samples produces a linear curve; the slope of the curve is the rate of weight loss. When this method is used to measure the volatility of aqueous salt concentrates or liquid concentrates, the water or acetone present in the sample volatilizes before the sample of interest. The first linear loss region of the curve is the loss of water or acetone and the second linear region is characteristic of the sample of interest. In order to illustrate the difference in volatility between some of the compounds disclosed herein and the widely used herbicide dicamba, data from both the compounds and dicamba are presented Table 3 and in FIG. 1.

[3] = system: Kochia scoparia (KCHSC); experiment: Postemergence herbicide evaluation, percent reduction in plant size vs untreated control, 21 days after treatment; type: in vivo; conditions: KCHSC, postemergence; for pest or weed control at 140 g/ha / pest or weed control at 280 g/ha: Bassia scoparia, post-emergence, 504 h, read-out: Control/Injury; for pest or weed control at 280 g/ha: rate 280 g ae/ha
In short: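 Values are percent reduction in plant size against an untreated control, measured 21 days after a single postemergence spray at 140 or 280 g ae/ha (187 L/ha, 276 kPa). Treatments used 3-4 randomized complete-block replicates on 2 to 8 leaf-stage plants kept in a 25-28 °C greenhouse, with compounds in acetone/DMSO-based solvent containing crop oil and surfactant.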

[4] = system: Amaranthus palmeri (AMAPA); experiment: as above; type: in vivo, Amaranthus palmeri (Palmer amaranth); conditions: post-emergence, 504 h, postemergence, read-out: Control/Injury; for pest or weed control at 140 g/ha: rate 140 g ae/ha; for pest or weed control at 280 g/ha: rate 280 g ae/ha
In short: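 Percent reduction in plant size relative to untreated plants, measured 21 days after track-sprayer application (187 L/ha) of 140 or 280 g ae/ha to Amaranthus palmeri at the 2 to 8 leaf stage. Randomized complete block, 3 or 4 replicates, greenhouse at 25 to 28° C; spray solution acetone/DMSO with isopropanol, water and crop oil concentrate.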

[5] = system: Ambrosia artemisiifolia (AMBEL); experiment: as above; type: in vivo, Ambrosia artemisiifolia (common ragweed); conditions: post-emergence, 504 h, AMBEL, postemergence, read-out: Control/Injury; for pest or weed control at 140 g/ha: rate 140 g ae/ha; for pest or weed control at 280 g/ha: rate 280 g ae/ha
In short: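 Test compounds at 140 or 280 g ae/ha were applied by track sprayer (187 L/ha, spray solution containing acetone/DMSO, isopropanol, crop oil, surfactant) to 2–8 leaf plants, 3–4 replicates. Plants were kept in a greenhouse at 25–28 °C. Size reduction was scored against untreated controls at 21 days.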

[6] = system: Amaranthus rudis (AMATA); experiment: as above; type: in vivo, Amaranthus rudis (tall water hemp); conditions: Amaranthus tuberculatus, post-emergence, 504 h, AMATA, postemergence, read-out: Control/Injury; for pest or weed control at 140 g/ha: rate 140 g ae/ha; for pest or weed control at 280 g/ha: rate 280 g ae/ha
In short: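 Growth-reduction values are percent decrease in plant size relative to untreated plants, scored 21 days post-application. Amaranthus rudis (2-8 leaves) received postemergence sprays at 140 or 280 g ae/ha, 187 L/ha, in a mixed acetone/DMSO/water/isopropanol carrier with crop oil concentrate. Greenhouse conditions were 25-28° C, 50-60% RH; 3-4 randomized replicates.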

[7] = percent reduction vs untreated control, 21 days after treatment
[8] = percent reduction vs untreated, 21 days after treatment
[9] = R-AMAPA, percent reduction vs untreated control, 21 days after treatment

Volatility [2] [ng/min] | Structure (SMILES) | pest or weed control at 140 g/ha [1, 7] [%] | pest or weed control at 280 g/ha [1, 7] [%] | further results
0.46 | COc1c(Cl)ccc(Cl)c1C(=O)O/N=C(\N)c1ccco1 [Compound A-38] | 89 | 97 | 
0.08 | COc1c(Cl)ccc(Cl)c1C(=O)O/N=C(\N)c1ccccc1 [Compound A-150] |  |  | pest or weed control at 140 g/ha [1]: 98%; pest or weed control at 280 g/ha [1]: 97%; pest or weed control at 140 g/ha [1, 8]: 95%; pest or weed control at 280 g/ha [1, 8]: 98%; pest or weed control at 140 g/ha ([3]; rate 140 g ae/ha, percent reduction vs untreated, 21 days after treatment): 88%; pest or weed control at 280 g/ha [3, 8]: 99%; pest or weed control at 140 g/ha ([4]; AMAPA): 80%; pest or weed control at 280 g/ha ([4]; AMAPA): 78%
0.19 | COc1c(Cl)ccc(Cl)c1C(=O)OCOC(=O)c1c(Cl)ccc(Cl)c1OC [Compound A-53] |  |  | pest or weed control at 140 g/ha ([3]; rate 140 g ae/ha): 85%; pest or weed control at 280 g/ha [3]: 90%; Control/Injury ([3]; rate 140 g ae/ha): 85; pest or weed control at 140 g/ha [5]: 60%; pest or weed control at 280 g/ha [5]: 70%; pest or weed control at 140 g/ha [4, 9]: 70%; pest or weed control at 280 g/ha [4, 9]: 98%
0.38 | COc1c(Cl)ccc(Cl)c1C(=O)O/N=C(\N)C(C)C [Compound A-48] |  |  | pest or weed control at 140 g/ha ([3]; rate 140 g ae/ha): 90%; pest or weed control at 280 g/ha [3]: 100%; pest or weed control at 140 g/ha [5]: 85%; pest or weed control at 280 g/ha [5]: 100%; pest or weed control at 140 g/ha [4, 9]: 90%; pest or weed control at 280 g/ha [4, 9]: 99%; pest or weed control at 140 g/ha [6]: 60%; pest or weed control at 280 g/ha [6]: 90%
0.189 | COc1c(Cl)ccc(Cl)c1C(=O)O/N=C(\N)Cc1ccccc1 [Compound A-8] | 98 | 99 | 
0.08 | COc1c(Cl)ccc(Cl)c1C(=O)O/N=C(\N)c1ccccc1 [Compound A-49] | 95 | 98 | pest or weed control at 140 g/ha ([3]; rate 140 g ae/ha): 82%; pest or weed control at 280 g/ha [3]: 100%; pest or weed control at 140 g/ha [5]: 98%; pest or weed control at 280 g/ha [5]: 99%; pest or weed control at 140 g/ha [4, 9]: 95%; pest or weed control at 280 g/ha [4, 9]: 100%
0.0098 | COc1c(Cl)ccc(Cl)c1C(=O)O/N=C(\N)c1ccc(Cl)cc1Cl [Compound A-15] | 98 | 96 | 
0.24 | COc1c(Cl)ccc(Cl)c1C(=O)OCCOCCOC(=O)c1c(Cl)ccc(Cl)c1OC [Compound A-55] |  |  | pest or weed control at 280 g/ha [3]: 15%; pest or weed control at 140 g/ha [5]: 25%
0.086 | COc1c(Cl)ccc(Cl)c1C(=O)O/N=C(\N)CC(C)C [Compound A-59] | 94 | 99 | 
0.026 | COc1c(Cl)ccc(Cl)c1C(=O)O/N=C(\N)c1ccc(C)cc1 [Compound A-17] | 94 | 95 | 
0.0034 | COc1c(Cl)ccc(Cl)c1C(=O)O/N=C(\N)c1ccc2ccoc2c1 [Compound A-26] | 93 | 93 | 
0.064 | COc1c(Cl)ccc(Cl)c1C(=O)O/N=C(\N)C1CCCCC1 [Compound A-6] | 98 | 98 | 
0.09 | COc1c(Cl)ccc(Cl)c1C(=O)O/N=C(\N)c1cccnc1 [Compound A-50] |  |  | pest or weed control at 140 g/ha ([3]; rate 140 g ae/ha): 99%; pest or weed control at 280 g/ha [3]: 99%; pest or weed control at 140 g/ha [5]: 90%; pest or weed control at 280 g/ha [5]: 100%; pest or weed control at 140 g/ha [4, 9]: 95%; pest or weed control at 280 g/ha [4, 9]: 99%; pest or weed control at 140 g/ha [6]: 95%; pest or weed control at 280 g/ha [6]: 97%
0.11 | COc1c(Cl)ccc(Cl)c1C(=O)O/N=C(\C)C/C(C)=N/OC(=O)c1c(Cl)ccc(Cl)c1OC [Compound A-58] |  |  | 
0.1 | COc1c(Cl)ccc(Cl)c1C(=O)O/N=C(\C)c1ccccc1 [Compound A-46] |  |  | pest or weed control at 140 g/ha ([3]; rate 140 g ae/ha): 99%; pest or weed control at 280 g/ha [3]: 100%; pest or weed control at 140 g/ha [5]: 85%; pest or weed control at 280 g/ha [5]: 82%; pest or weed control at 140 g/ha [4, 9]: 85%; pest or weed control at 280 g/ha [4, 9]: 80%
0.039 | COc1c(Cl)ccc(Cl)c1C(=O)O/N=C(\N)c1ccccn1 [Compound A-34] | 87 | 97 | 
0.145 | COc1c(Cl)ccc(Cl)c1C(=O)O/N=C(\N)c1ccsc1 [Compound A-37] | 87 | 96 | 
0.73 | COc1c(Cl)ccc(Cl)c1C(=O)OCc1cccnc1 [Compound A-45] |  |  | 
0.022 | COc1c(Cl)ccc(Cl)c1C(=O)O/N=C(\N)c1cncnc1 [Compound A-35] | 96 | 99 | 
0.056 | COc1c(Cl)ccc(Cl)c1C(=O)O/N=C(\N)c1ccc(Cl)c(Cl)c1 [Compound A-14] |  |  | 
0.015 | COc1c(Cl)ccc(Cl)c1C(=O)O/N=C(\N)c1ccncc1 [Compound A-33] | 87 | 93 | 
0.074 | COc1ccccc1/C(N)=N/OC(=O)c1c(Cl)ccc(Cl)c1OC [Compound A-21] | 95 | 98 | 
0.417 | COc1c(Cl)ccc(Cl)c1C(=O)O/N=C(\N)c1cccs1 [Compound A-36] | 83 | 98 | 
0.021 | COc1c(Cl)ccc(Cl)c1C(=O)O/N=C(\N)c1ccc2ncccc2c1 [Compound A-25] | 95 | 90 | 
0.25 | COc1c(Cl)ccc(Cl)c1C(=O)OCOC(=O)c1ccccc1 [Compound A-51] |  |  | pest or weed control at 140 g/ha ([3]; rate 140 g ae/ha): 92%; pest or weed control at 280 g/ha [3]: 99%; pest or weed control at 140 g/ha [5]: 90%; pest or weed control at 280 g/ha [5]: 95%; pest or weed control at 140 g/ha [4, 9]: 95%; pest or weed control at 280 g/ha [4, 9]: 95%
